Counter-ions that a name gives are not always drawn.
Legend:
Format in all cases: cell-based
A549 = assay: MTS cytotoxicity testing, A549 cells; conditions: Homo sapiens, ITK/BTK null cells
Method: (§1) Cell lines: The cells were sourced from either the DSMZ (Braunschweig, Germany) or the ATCC (Middlesex, UK). They were maintained in the recommended growth medium, supplemented with 10 % fetal calf serum, antibiotics (100 U/mL penicillin and […]), 2 mM glutamine, 1 mM NaHCO3, 1 mM sodium pyruvate, and 20 mM HEPES. The cells were incubated at 37 °C in a humidified atmosphere with 5 % CO2. Cell lines were routinely verified and checked for mycoplasma contamination every two weeks to once a month.
(§2) MTS cytotoxicity testing: An MTS assay method was developed in our laboratory for routine drug screening. This technique was used to assess the cytotoxicity of compounds, and the IC50 values were determined as previously described.[27]

HCT116 = assay: MTS cytotoxicity testing, HCT116 cells; conditions: Homo sapiens, HCT-116; ITK/BTK null cells
Method: as §1, §2

U2OS = assay: MTS cytotoxicity testing, U2OS cells; conditions: Homo sapiens, ITK/BTK null cells
Method: as §1, §2

Jurkat = assay: MTS cytotoxicity testing, Jurkat cells; conditions: Homo sapiens, ITK high cells
Method: as §1, §2

CCRF‐CEM = assay: MTS cytotoxicity testing, CCRF‐CEM cells; conditions: Homo sapiens, ITK high cells
Method: as §1, §2

MOLT‐4 = assay: MTS cytotoxicity testing, MOLT‐4 cells; conditions: Homo sapiens, ITK high cells
Method: as §1, §2

RAMOS = assay: MTS cytotoxicity testing, RAMOS cells; conditions: Homo sapiens, BTK high cells
Method: as §1, §2

K562 = assay: MTS cytotoxicity testing, K562 cells; conditions: Homo sapiens, BTK high cells
Method: as §1, §2

[1] = MTS cytotoxicity testing, MRC‐5 non‐cancer cells; conditions: human
Method: as §1, §2

[2] = MTS cytotoxicity testing, BJ non‐cancer cells; conditions: human
Method: as §1, §2

O=S(=O)(c1cc(-c2ccccc2)cc2cccnc12)N1CCCCC1 [9a, 6‐phenyl‐8‐(piperidin‐1‐ylsulfonyl)quinoline]
IC50 (A549): > 50 µM | IC50 (HCT116): > 50 µM | IC50 (U2OS): > 50 µM | IC50 (Jurkat): > 50 µM | IC50 (CCRF‐CEM): > 50 µM | IC50 (MOLT‐4): > 50 µM | IC50 (RAMOS): > 50 µM | IC50 (K562): > 50 µM | IC50 [1]: > 50 µM | IC50 [2]: > 50 µM

O=S(=O)(c1cc(-c2cccc(Cl)c2)cc2cccnc12)N1CCCCC1 [9b, 6‐(3‐chlorophenyl)‐8‐(piperidin‐1‐ylsulfonyl)quinoline]
IC50 (A549): > 50 µM | IC50 (HCT116): > 50 µM | IC50 (U2OS): > 50 µM | IC50 (Jurkat): > 50 µM | IC50 (CCRF‐CEM): > 50 µM | IC50 (MOLT‐4): > 50 µM | IC50 (RAMOS): > 50 µM | IC50 (K562): > 50 µM | IC50 [1]: > 50 µM | IC50 [2]: > 50 µM

O=S(=O)(c1cc(-c2ccccc2F)cc2cccnc12)N1CCCCC1 [9c, 6‐(2‐fluorophenyl)‐8‐(piperidin‐1‐ylsulfonyl)quinoline]
IC50 (A549): > 50 µM | IC50 (HCT116): > 50 µM | IC50 (U2OS): > 50 µM | IC50 (Jurkat): 12.7 ± 5.45 µM | IC50 (CCRF‐CEM): > 50 µM | IC50 (MOLT‐4): > 50 µM | IC50 (RAMOS): > 50 µM | IC50 (K562): > 50 µM | IC50 [1]: > 50 µM | IC50 [2]: > 50 µM

O=S(=O)(c1cc(-c2ccccc2Br)cc2cccnc12)N1CCCCC1 [9d, 6‐(2‐bromophenyl)‐8‐(piperidin‐1‐ylsulfonyl)quinoline]
IC50 (A549): > 50 µM | IC50 (HCT116): > 50 µM | IC50 (U2OS): > 50 µM | IC50 (Jurkat): 13.5 ± 6.25 µM | IC50 (CCRF‐CEM): > 50 µM | IC50 (MOLT‐4): > 50 µM | IC50 (RAMOS): 12.7 ± 3.71 µM | IC50 (K562): > 50 µM | IC50 [1]: > 50 µM | IC50 [2]: > 50 µM

O=S(=O)(c1cc(-c2ccc(O)cc2)cc2cccnc12)N1CCCCC1 [9e, 4‐(8‐(piperidin‐1‐ylsulfonyl)quinolin‐6‐yl)phenol]
IC50 (A549): > 50 µM | IC50 (HCT116): > 50 µM | IC50 (U2OS): > 50 µM | IC50 (Jurkat): 7.43 ± 7.4 µM | IC50 (CCRF‐CEM): 28.6 ± 7.64 µM | IC50 (MOLT‐4): > 50 µM | IC50 (RAMOS): 5.47 ± 1.71 µM | IC50 (K562): 5.47 ± 1.71 µM | IC50 [1]: > 50 µM | IC50 [2]: > 50 µM

O=S(=O)(c1cc(-c2ccc(O)c(F)c2)cc2cccnc12)N1CCCCC1 [9f, 2‐fluoro‐4‐(8‐(piperidin‐1‐ylsulfonyl)quinolin‐6‐yl)phenol]
IC50 (A549): > 50 µM | IC50 (HCT116): > 50 µM | IC50 (U2OS): > 50 µM | IC50 (Jurkat): 13 ± 6.43 µM | IC50 (CCRF‐CEM): 17.1 ± 4.64 µM | IC50 (MOLT‐4): > 50 µM | IC50 (RAMOS): 9.69 ± 2.41 µM | IC50 (K562): 9.69 ± 2.41 µM | IC50 [1]: > 50 µM | IC50 [2]: > 50 µM

O=S(=O)(c1cc(-c2cc(Cl)c(O)c(Cl)c2)cc2cccnc12)N1CCCCC1 [9g, 2,6‐dichloro‐4‐(8‐(piperidin‐1‐ylsulfonyl)quinolin‐6‐yl)phenol]
IC50 (A549): > 50 µM | IC50 (HCT116): > 50 µM | IC50 (U2OS): > 50 µM | IC50 (Jurkat): > 50 µM | IC50 (CCRF‐CEM): > 50 µM | IC50 (MOLT‐4): > 50 µM | IC50 (RAMOS): > 50 µM | IC50 (K562): > 50 µM | IC50 [1]: > 50 µM | IC50 [2]: > 50 µM

COc1cc(-c2cc(S(=O)(=O)N3CCCCC3)c3ncccc3c2)cc(Cl)c1O [9h, 2‐chloro‐6‐methoxy‐4‐(8‐(piperidin‐1‐ylsulfonyl)quinolin‐6‐yl)phenol]
IC50 (A549): > 50 µM | IC50 (HCT116): > 50 µM | IC50 (U2OS): > 50 µM | IC50 (Jurkat): > 50 µM | IC50 (CCRF‐CEM): > 50 µM | IC50 (MOLT‐4): > 50 µM | IC50 (RAMOS): > 50 µM | IC50 (K562): > 50 µM | IC50 [1]: > 50 µM | IC50 [2]: > 50 µM

COc1cccc(-c2cc(S(=O)(=O)N3CCCCC3)c3ncccc3c2)c1 [9i, 6‐(3‐methoxyphenyl)‐8‐(piperidin‐1‐ylsulfonyl)quinoline]
IC50 (A549): > 50 µM | IC50 (HCT116): > 50 µM | IC50 (U2OS): > 50 µM | IC50 (Jurkat): 8.43 ± 6.43 µM | IC50 (CCRF‐CEM): 38.6 ± 4.64 µM | IC50 (MOLT‐4): > 50 µM | IC50 (RAMOS): > 50 µM | IC50 (K562): > 50 µM | IC50 [1]: > 50 µM | IC50 [2]: > 50 µM

Nc1cccc(-c2cc(S(=O)(=O)N3CCCCC3)c3ncccc3c2)c1 [9j, 3‐(8‐(piperidin‐1‐ylsulfonyl)quinolin‐6‐yl)aniline hydrochloride]
IC50 (A549): > 50 µM | IC50 (HCT116): > 50 µM | IC50 (U2OS): > 50 µM | IC50 (Jurkat): > 50 µM | IC50 (CCRF‐CEM): > 50 µM | IC50 (MOLT‐4): 5.57 ± 7.56 µM | IC50 (RAMOS): > 50 µM | IC50 (K562): > 50 µM | IC50 [1]: > 50 µM | IC50 [2]: > 50 µM

N#Cc1cccc(-c2cc(S(=O)(=O)N3CCCCC3)c3ncccc3c2)c1 [9k, 3‐(8‐(piperidin‐1‐ylsulfonyl)quinolin‐6‐yl)benzonitrile]
IC50 (A549): > 50 µM | IC50 (HCT116): > 50 µM | IC50 (U2OS): > 50 µM | IC50 (Jurkat): > 50 µM | IC50 (CCRF‐CEM): > 50 µM | IC50 (MOLT‐4): > 50 µM | IC50 (RAMOS): > 50 µM | IC50 (K562): > 50 µM | IC50 [1]: > 50 µM | IC50 [2]: > 50 µM

O=S(=O)(c1cc(-c2cccc(OC(F)(F)F)c2)cc2cccnc12)N1CCCCC1 [9l, 8‐(piperidin‐1‐ylsulfonyl)‐6‐(3‐(trifluoromethoxy)phenyl)quinolone]
IC50 (A549): > 50 µM | IC50 (HCT116): > 50 µM | IC50 (U2OS): > 50 µM | IC50 (Jurkat): 12.1 ± 6.43 µM | IC50 (CCRF‐CEM): > 50 µM | IC50 (MOLT‐4): > 50 µM | IC50 (RAMOS): > 50 µM | IC50 (K562): > 50 µM | IC50 [1]: > 50 µM | IC50 [2]: > 50 µM

O=S(=O)(c1cc(-c2ccc(C(F)(F)F)cc2)cc2cccnc12)N1CCCCC1 [9m, 8‐(piperidin‐1‐ylsulfonyl)‐6‐(4‐(trifluoromethyl)phenyl)quinoline]
IC50 (A549): > 50 µM | IC50 (HCT116): > 50 µM | IC50 (U2OS): > 50 µM | IC50 (Jurkat): 11.3 ± 1.13 µM | IC50 (CCRF‐CEM): > 50 µM | IC50 (MOLT‐4): > 50 µM | IC50 (RAMOS): 8.11 ± 1.29 µM | IC50 (K562): > 50 µM | IC50 [1]: > 50 µM | IC50 [2]: > 50 µM

O=S(=O)(c1cc(-c2ccnc(F)c2)cc2cccnc12)N1CCCCC1 [9n, 6‐(2‐fluoropyridin‐4‐yl)‐8‐(piperidin‐1‐ylsulfonyl)quinoline]
IC50 (A549): > 50 µM | IC50 (HCT116): > 50 µM | IC50 (U2OS): > 50 µM | IC50 (Jurkat): > 50 µM | IC50 (CCRF‐CEM): 19.4 ± 0.78 µM | IC50 (MOLT‐4): > 50 µM | IC50 (RAMOS): 2.76 ± 0.79 µM | IC50 (K562): > 50 µM | IC50 [1]: > 50 µM | IC50 [2]: > 50 µM

COc1cc(-c2cc(S(=O)(=O)N3CCCCC3)c3ncccc3c2)ccn1 [9o, 6‐(2‐methoxypyridin‐4‐yl)‐8‐(piperidin‐1‐ylsulfonyl)quinoline]
IC50 (A549): > 50 µM | IC50 (HCT116): > 50 µM | IC50 (U2OS): > 50 µM | IC50 (Jurkat): 11.4 ± 3.49 µM | IC50 (CCRF‐CEM): 15.3 ± 2.25 µM | IC50 (MOLT‐4): > 50 µM | IC50 (RAMOS): 6.76 ± 0.79 µM | IC50 (K562): > 50 µM | IC50 [1]: > 50 µM | IC50 [2]: > 50 µM

O=S(=O)(c1cc(-c2ccc3nc[nH]c3c2)cc2cccnc12)N1CCCCC1 [9p, 6‐(1H‐benzo[d]imidazol‐6‐yl)‐8‐(piperidin‐1‐ylsulfonyl)quinoline hydrochloride]
IC50 (A549): > 50 µM | IC50 (HCT116): > 50 µM | IC50 (U2OS): > 50 µM | IC50 (Jurkat): 21.2 ± 3.49 µM | IC50 (CCRF‐CEM): 13.2 ± 1.25 µM | IC50 (MOLT‐4): > 50 µM | IC50 (RAMOS): > 50 µM | IC50 (K562): > 50 µM | IC50 [1]: > 50 µM | IC50 [2]: > 50 µM

From paper PMC12128149, “Molecular Hybrids of Quinoline and Sulfonamide: Design, Synthesis and in Vitro Anticancer Studies” (ChemistryOpen, 2024)
